The values that follow come from patent EP0236230A1, “Aqueous suspensions containing at least one compound chosen from 6,7-dihydrobenzoquinolizine carboxylic acids, and their use in the treatment of plants” (RIKER LABORATORIES, INC., priority 1986, dated 1987).

In brackets after ≈: the same amount, converted by molar mass.

One series is described as follows: physchem. The conditions noted are these: water. An excerpt: Une deuxième solution consiste à diminuer la solubilité du produit.
In another series the test system is PSEUDOMONAS SYRINGAE
Description: Minimal inhibitory concentration (CMI) at varying pH. The format is cell-based. An excerpt:
(§1) Une autre conséquence inattendue de la valeur du pH est l'influence sur l'activité antibactérienne elle-même. Selon l'invention, c'est en milieu pH acide que l'on obtient la meilleure activité antibactérienne.
(§2) A titre d'exemple, on donne ci-après les concentrations minimales inhibitrices (CMI) obtenues vis-à-vis de quelques bactéries phytopathogènes en faisant varier le pH.

In the next series the test system is XANTHOMONAS PRUNI. The description is as above. The series is classed as cell-based.
Source text: as §1, §2

The test system of the next series is XANTHOMONAS CYNARAE. The series is described as above. The format is cell-based.
Source text: as §1, §2

The test system of the next series is PSEUDOMONAS VIRIDIFLAVA
Described as above. The format is cell-based.
Source text: as §1, §2

For another series, the system named is ERWINIA AMYLOVORA
The description is as above. The format is cell-based.
Source text: as §1, §2

A word on the solubility: it is how much of the substance goes into solution per volume.

With `CC1CCc2cc(F)cc3c(=O)c(C(=O)O)cn1c23` (centres unmarked) [Fluméquine, acide [1H-5H] dihydro-6,7 fluoro-9 méthyl-5 oxo-1 benzo [i,j] quinolizine carboxylique-2], the solubility in the series “physchem” (pH 5, water) is around 100 µg/mL (≈ 383 µM); in “physchem” (pH 7, water), 300 to 400 µg/mL (≈ 1150 to 1530 µM). The “concentrations minimales inhibitrices (CMI)” value in the series on PSEUDOMONAS SYRINGAE (pH 5) is recorded as 0,5; in the series with PSEUDOMONAS SYRINGAE (pH 6,5), 2; in the series with PSEUDOMONAS SYRINGAE (pH 7,4), 4; with XANTHOMONAS PRUNI (pH 5), 0,25; with XANTHOMONAS PRUNI (pH 6,5) it was 1; in the series on XANTHOMONAS PRUNI (pH 7,4), 2. Moreover, the “concentrations minimales inhibitrices (CMI)” value is given as 0,5 in the series on XANTHOMONAS CYNARAE (pH 5); 1 with XANTHOMONAS CYNARAE (pH 6,5); 2 in the series on XANTHOMONAS CYNARAE (pH 7,4); 1 with PSEUDOMONAS VIRIDIFLAVA (pH 5); 2 in the series with PSEUDOMONAS VIRIDIFLAVA (pH 6,5); 4 in the series on PSEUDOMONAS VIRIDIFLAVA (pH 7,4). Also, the “concentrations minimales inhibitrices (CMI)” value is recorded as 0,1 in the series with ERWINIA AMYLOVORA (pH 5), 0,5 in the series with ERWINIA AMYLOVORA (pH 6,5) and 1 in the series on ERWINIA AMYLOVORA (pH 7,4).
